These results are taken from US8716478B2, “Boron-containing small molecules” (Anacor Pharmaceuticals, Inc., priority 2010, dated 2014).

pIC50: −log10 of the molar value.

For series [1], the system named is TNF-α in peripheral blood mononuclear cells (PBMCs). Kind of series: TNF-α inhibition in LPS-stimulated peripheral blood mononuclear cells. In kind it is cell-based. Particulars: PBMC; PBMCs, LPS 1 μg/mL for 24 h; read-out: Proinflammatory TNF-α IC50. On the procedure:
Peripheral blood mononuclear cells (PBMCs) pooled from 10-20 donors were obtained from a local blood bank, ficoll gradient purified, and stored frozen in liquid nitrogen. Cells were thawed and seeded into 96-well plates at 5×10^5 cells/well in RPMI 1640 with 10% heat-inactivated fetal calf serum (MediaTech, Inc, Hearndon, Va., USA), Test articles were evaluated at the indicated concentrations in 150 μL media containing <2% DMSO, final, with stimulant and PBMCs. Cells were stimulated with lipopolysaccharide (LPS, phenol-extract from E. coli, Sigma-Aldrich, St. Louis, Mo.) at 1 μg/mL. Stimulation was with LPS for 24 h to measure TNF-α. Cytokines in supernatants were analyzed with a FACSArray flow cytometer (BD Biosciences, San Jose, Calif., USA) using the BD Cytometric Bead Array (CBA) Flex Set (BD Biosciences). IC50 values were calculated using the four parameter logistic equation.

Series [2] is described as follows: Pharmacokinetics and oral bioavailability after IV and PO dosing. In kind it is in vivo, female CD-1 mice. The conditions noted are these: plasma; for bioavailability / AUC: female, CD-1, mouse; for bioavailability: po; for AUC: 10 mg/kg oral suspension dose; for clearance: mouse, 5 mg/kg, female CD-1 mice, intravenous. On the procedure:
The objective of this study was to evaluate the pharmacokinetics and oral bioavailability of PDE4 inhibitors following intravenous (IV) administration and oral (PO) doses in female CD-1 mice.
After dosing, blood samples were collected through 24 h, twice from each animal at specific times (3 mice/time point), into microcentrifuge tubes containing K2EDTA (anticoagulant), stored on wet ice and processed for plasma. The plasma samples were analyzed for concentrations of parent compound by LC/MS/MS using an internal standard/peak area method. Pharmacokinetic analysis of the mean plasma concentration-time profiles following IV and PO administration was performed.
[…] Dosing solutions for intravenous administration were prepared in 55% PEG300/25% PG/20% water. Oral dosing used a suspension prepared in 1% CMC in water with 0.1% Tween 80.
After dosing, blood samples were collected through 24 h, twice from each animal via retro-orbital bleed (˜0.1 mL, 1st time point) or cardiac puncture (˜0.6 mL, 2nd time point) at specific times (3 mice/time point), into microcentrifuge tubes containing K2EDTA (anticoagulant) and stored on wet ice prior to processing.
Plasma was prepared by centrifugation of blood samples for 6 min at approximately 2000×g or 6000 rpm at 4° C. All processed plasma samples (˜50 μL and 300 μL) were transferred to analysis tubes, placed on dry ice immediately and later stored at −80° C. until analysis for concentrations of experimental compound by LC/MS/MS.
Mouse IV clearance, Mouse Oral AUC and Oral Bioavailability are provided below. 6-(1-Hydroxy-1,3-dihydrobenzo[c][1,2]oxaborol-5-yloxy)-2-(2-isopropoxyethoxy)nicotinonitrile (D140) and 6-(1-hydroxy-1,3-dihydrobenzo[c][1,2]oxaborol-5-yloxy)-2-(4-oxopentyloxy)nicotinonitrile (D141) are disclosed in U.S. patent application Ser. No. 12/399,015, filed Mar. 5, 2009.

The next series deals with human PDE4 enzyme. Kind of series: Phosphodiesterase 4 (PDE4) inhibition, semi-purified enzyme from human U937 cells. The series is classed as biochemical. Particulars: 1 μM cAMP, 20 minutes at 25° C.; read-out: PDE4 IC50.

The term pIC50 denotes the negative decadic logarithm of the IC50, by convention in mol/L. The bioavailability is the share of a dose that reaches the circulation, judged against a reference dose that is usually intravenous. Lower therefore signals poor availability. Broadly, the AUC is concentration integrated over time. A higher AUC goes with high exposure. Consider `CC(C)OCCOc1nc(Oc2ccc3c(c2)COB3O)c(C(F)(F)F)cc1C#N` [Compound D238, 6-(1-Hydroxy-1,3-dihydrobenzo[e][1,2]oxaborol-5-yloxy)-2-(2-isopropoxyethoxy)-5-(trifluoromethyl)nicotinonitrile], for which the pIC50 in series [1] was 8.96. Moreover, in series [2], the bioavailability came to 65%, the AUC came to 11200 ng·h/mL and the clearance was 9.85 mL/min/kg.

As for `N#Cc1cc(Cl)c(Oc2ccc3c(c2)COB3O)nc1OCCOC1CC1` [Compound D239, 5-Chloro-2-(2-cyclopropoxyethoxy)-6-(1-hydroxy-1,3-dihydrobenzo[c][1,2]oxaborol-5-yloxy)nicotinonitrile], the negative logarithm of the IC50 (pIC50) with human PDE4 enzyme was 8.89; in series [1], 9.19.

For the compound `CC(=O)CCCOc1nc(Oc2ccc3c(c2)COB3O)cc(C(F)(F)F)c1C#N` [Compound D242, 6-(1-Hydroxy-1,3-dihydrobenzo[c][1,2]oxaborol-5-yloxy)-2-(4-oxopentyloxy)-4-(trifluoromethyl)nicotinonitrile], in the series on human PDE4 enzyme, the pIC50 was 8.66. The negative logarithm of the IC50 (pIC50) in series [1] was 9.68. In series [2], this compound showed a bioavailability of 15%, an exposure (AUC) of 590 ng·h/mL and a clearance of 567 mL/min/kg.

On to `CC(C)OCCOc1nc(Oc2cc3c(cc2F)B(O)OC3)c(Cl)cc1C#N` [Compound D249, 5-Chloro-6-(6-fluoro-1-hydroxy-1,3-dihydrobenzo[c][1,2]oxaborol-5-yloxy)-2-(2-isopropoxyethoxy)nicotinonitrile], for which the pIC50 in series [1] was 8.64. In series [2], the bioavailability amounted to 100%, the area under the curve (AUC) was 3300 ng·h/mL and the clearance is 59.1 mL/min/kg.

`CC(C)OCCOc1nc(Oc2ccc3c(c2)COB3O)cc(C(F)(F)F)c1C#N` [Compound D241, 6-(1-hydroxy-1,3-dihydrobenzo[c][1,2]oxaborol-5-yloxy)-2-(2-isopropoxyethoxy)-4-(trifluoromethyl)nicotinonitrile]: in the series with human PDE4 enzyme, the pIC50 is 8.96. Moreover, in series [1], the negative logarithm of the IC50 (pIC50) is 8.54. Moreover, in series [2], the bioavailability is 100%, the AUC is 14900 ng·h/mL and the clearance is 14.2 mL/min/kg.

`Cc1cc(Oc2nc(OCCOC(C)C)c(C#N)cc2Cl)cc2c1B(O)OC2` [Compound D245, 5-Chloro-6-(1-hydroxy-7-methyl-1,3-dihydrobenzo[c][1,2]oxaborol-5-yloxy)-2-(2-isopropoxyethoxy)nicotinonitrile]: the pIC50 was 8.70 in the series on human PDE4 enzyme and 7.59 in series [1].

Consider `CC(=O)CCCOc1nc(Oc2cc(F)c3c(c2)COB3O)c(Cl)cc1C#N` [Compound D248, 5-Chloro-6-(7-fluoro-1-hydroxy-1,3-dihydrobenzo[c][1,2]oxaborol-5-yloxy)-2-(4-oxopentyloxy)nicotinonitrile], for which, in the series with human PDE4 enzyme, the negative logarithm of the IC50 (pIC50) was 8.77. Further, the pIC50 in series [1] is 9.03. For the same compound, in series [2], the bioavailability worked out at 79%, the exposure (AUC) came to 91000 ng·h/mL and the clearance was 1.83 mL/min/kg.

Turning to `N#Cc1cc(Cl)c(Oc2ccc3c(c2)COB3O)nc1OCCOC(F)(F)F` [Compound D235], the negative logarithm of the IC50 (pIC50) in series [1] was 8.66. In series [2], this compound gave an AUC of 5840 ng·h/mL and a clearance of 20.2 mL/min/kg.

Regarding `CC(C)OCCOc1nc(Oc2ccc3c(c2)COB3O)c(C2CC2)cc1C#N` [Compound D237, 5-cyclopropyl-6-(1-hydroxy-1,3-dihydrobenzo[c][1,2]oxaborol-5-yloxy)-2-(2-isopropoxyethoxy)nicotinonitrile], the pIC50 in series [1] was 8.82. Further, in series [2], the bioavailability was found to be 100%, the exposure (AUC) came out at 6920 ng·h/mL and the clearance is 26.8 mL/min/kg.

`CC(C)OCCOc1nc(Oc2cc(F)c3c(c2)COB3O)cc(C(F)(F)F)c1C#N` [Compound D254, 6-(7-fluoro-1-hydroxy-1,3-dihydrobenzo[c][1,2]oxaborol-5-yloxy)-2-(2-isopropoxyethoxy)-4-(trifluoromethyl)nicotinonitrile]: in series [1], the pIC50 is 8.46. In series [2], this compound showed a bioavailability of 58%, an AUC of 110000 ng·h/mL and a clearance of 1.05 mL/min/kg.

Regarding `CC(=O)CCCOc1nc(Oc2ccc3c(c2)COB3O)c(C#N)cc1C#N` [Compound D244, 2-(1-Hydroxy-1,3-dihydrobenzo[c][1,2]oxaborol-5-yloxy)-6-(4-oxopentyloxy)pyridine-3,5-dicarbonitrile], the pIC50 in series [1] was 9.68. In series [2], this compound showed a bioavailability of 100%, an area under the curve (AUC) of 13600 ng·h/mL and a clearance of 23.3 mL/min/kg.

With `CC(C)OCCOc1nc(Oc2ccc3c(c2)COB3O)c(C#N)cc1C#N` [Compound D243, 2-(1-Hydroxy-1,3-dihydrobenzo[c][1,2]oxaborol-5-yloxy)-6-(2-isopropoxyethoxy)pyridine-3,5-dicarbonitrile], the negative logarithm of the IC50 (pIC50) in the series on human PDE4 enzyme was 8.19. In addition, in series [1], the pIC50 was 8.96. For the same compound, in series [2], the bioavailability was determined as 96%, the area under the curve (AUC) was 3900 ng·h/mL and the clearance is 50 mL/min/kg.

For the compound `CC(=O)CCCOc1nc(Oc2ccc3c(c2)COB3O)c(C#N)cc1Cl` [Compound D253, 5-Chloro-2-(1-hydroxy-1,3-dihydrobenzo[c][1,2]oxaborol-5-yloxy)-6-(4-oxopentyloxy)nicotinonitrile], the pIC50 in the series on human PDE4 enzyme is 9.60; in series [1], 9.24.

`CC(=O)CCCOc1nc(Oc2cc3c(cc2F)B(O)OC3)c(Cl)cc1C#N` [Compound D250, 5-Chloro-6-(6-fluoro-1-hydroxy-1,3-dihydrobenzo[c][1,2]oxaborol-5-yloxy)-2-(4-oxopentyloxy)nicotinonitrile]: the negative-log IC50 (pIC50) in series [1] is 9.39. In series [2], the bioavailability is 71%, the AUC worked out at 17000 ng·h/mL and the clearance was 7.83 mL/min/kg.

On to `COCC(COc1nc(Oc2ccc3c(c2)COB3O)c(Cl)cc1C#N)OC` (centres unmarked) [Compound D232, 5-Chloro-2-(2,3-dimethoxypropoxy)-6-(1-hydroxy-1,3-dihydrobenzo[c][1,2]oxaborol-5-yloxy)nicotinonitrile], for which the negative-log IC50 (pIC50) with human PDE4 enzyme is 7.64; in series [1] it was 7.01.

Take `N#Cc1cc(Cl)c(Oc2ccc3c(c2)COB3O)nc1OC1CCOCC1` [Compound D240, 5-Chloro-6-(1-hydroxy-1,3-dihydrobenzo[c][1,2]oxaborol-5-yloxy)-2-(tetrahydro-2H-pyran-4-yloxy)nicotinonitrile]: the pIC50 in series [1] was 8.42.

Take `CC(=O)CCCOc1nc(Oc2cc(C)c3c(c2)COB3O)c(Cl)cc1C#N` [Compound D246, 5-Chloro-6-(1-hydroxy-7-methyl-1,3-dihydrobenzo[c][1,2]oxaborol-5-yloxy)-2-(4-oxopentyloxy)nicotinonitrile]: the pIC50 is 8.89 in the series with human PDE4 enzyme and 7.96 in series [1].

For the compound `[2H]C1([2H])OB(O)c2ccc(Oc3nc(OCCOC(C)C)c(C#N)cc3Cl)cc21` [Compound D251, 5-Chloro-6-(3,3-dideuterio-1-hydroxy-1,3-dihydrobenzo[c][1,2]oxaborol-5-yloxy)-2-(2-isopropoxyethoxy)nicotinonitrile], in series [1], the pIC50 was 8.64. Moreover, in series [2], the AUC was determined as 6300 ng·h/mL and the clearance is 44.5 mL/min/kg.

As for `CC(=O)CCCOc1nc(Oc2ccc3c(c2)COB3O)c(C2CC2)cc1C#N` [Compound D236, 5-cyclopropyl-6-(1-hydroxy-1,3-dihydrobenzo[c][1,2]oxaborol-5-yloxy)-2-(4-oxopentyloxy)nicotinonitrile], in series [1], the negative logarithm of the IC50 (pIC50) is 9.47. In series [2], this compound had a bioavailability of 100%, an AUC of 5620 ng·h/mL and a clearance of 34.2 mL/min/kg.

As for `CC(C)OCCOc1nc(Oc2cc(F)c3c(c2)COB3O)c(Cl)cc1C#N` [Compound D247, 5-Chloro-6-(7-fluoro-1-hydroxy-1,3-dihydrobenzo[c][1,2]oxaborol-5-yloxy)-2-(2-isopropoxyethoxy)nicotinonitrile], the pIC50 in the series on human PDE4 enzyme is 7.72. Moreover, the pIC50 in series [1] is 8.54. In series [2], this compound showed a bioavailability of 100%, an AUC of 21000 ng·h/mL and a clearance of 18.3 mL/min/kg.

Take `CCC(=O)CCCOc1nc(Oc2ccc3c(c2)COB3O)c(Cl)cc1C#N` [Compound D234, 5-chloro-6-(1-hydroxy-1,3-dihydrobenzo[c][1,2]oxaborol-5-yloxy)-2-(4-oxohexyloxy)nicotinonitrile]: the negative logarithm of the IC50 (pIC50) in series [1] is 8.68.
